Results from ChEMBL document CHEMBL4673310, “Discovery of benzhydrol-oxaborole derivatives as Streptococcus pneumoniae leucyl-tRNA synthetase inhibitors” (Bioorg Med Chem, 2021).
Values after ≈ are worked out from the molar mass of the structure shown. Active and inactive are the calls of the source. No cut-off for these calls is given here.

Key:
[1] = Inhibition of Streptococcus pneumoniae LeuRS using [3H]Leucine as substrate preincubated for 20 mins
Streptococcus pneumoniae = test: Antibacterial activity against Streptococcus pneumoniae assessed as suppression of visible growth incubated for 24 hrs by CLSI-based broth microdilution method; assay type: functional

| SMILES | IC50 [1] | MIC (Streptococcus pneumoniae) |
| --- | --- | --- |
| CSc1cccc(C(O)c2ccc3c(c2)B(O)OC3)c1 (centres undefined) | 23.9 µM |  |
| O=Cc1cc(C(O)c2ccc3c(c2)B(O)OC3)ccc1F (centres undefined) | 66.8 µM |  |
| CCOC(=O)CC(=O)CSc1ccc(C(O)c2ccc3c(c2)B(O)OC3)cc1 (centres undefined) | 7.63 µM |  |
| COC(=O)c1ccc(C(O)c2ccc3c(c2)B(O)OC3)cc1 (centres undefined) | 18.5 µM |  |
| OB1OCc2ccc(C(O)c3ccc(S)cc3)cc21 (centres undefined) | 0.368 µM | 8 µg/mL (≈ 29.4 µM) |
| OB1OCc2ccc(C(O)c3ccccc3)cc21 (centres undefined) | 2.13 µM | 10 µg/mL (≈ 41.7 µM) |
| CC(=O)CSc1ccc(C(O)c2ccc3c(c2)B(O)OC3)cc1 (centres undefined) | 0.95 µM | 6 µg/mL (≈ 18.3 µM) |
| COc1cc(C(O)c2ccc3c(c2)B(O)OC3)cc(OC)c1OC (centres undefined) | > 640 µM |  |
| COc1cccc(C(O)c2ccc3c(c2)B(O)OC3)c1 (centres undefined) | 50.8 µM |  |
| C=CCSc1ccc(C(O)c2ccc3c(c2)B(O)OC3)cc1 (centres undefined) | 8.27 µM |  |
| C[Si](C)(C)CSc1ccc(C(O)c2ccc3c(c2)B(O)OC3)cc1 (centres undefined) | 13.3 µM |  |
| COc1ccc(C(O)c2ccc3c(c2)B(O)OC3)cc1OC (centres undefined) | 67.8 µM |  |
| C=Cc1ccc(C(O)c2ccc3c(c2)B(O)OC3)cc1 (centres undefined) | 4.63 µM | 8 µg/mL (≈ 30.1 µM) |
| COc1ccc(C(O)c2ccc3c(c2)B(O)OC3)cc1 (centres undefined) | 23.2 µM |  |
| OB1OCc2ccc(C(O)c3ccc(SCC4CCCCC4)cc3)cc21 (centres undefined) | 8.76 µM |  |
| OB1OCc2ccc(C(O)c3cccc(Cl)c3)cc21 (centres undefined) | 23.7 µM |  |
| O=C(O)CSc1ccc(C(O)c2ccc3c(c2)B(O)OC3)cc1 (centres undefined) | 2.15 µM |  |
| Nc1ccc(CSc2ccc(C(O)c3ccc4c(c3)B(O)OC4)cc2)cc1 (centres undefined) | 11.7 µM |  |
| CSc1ccccc1C(O)c1ccc2c(c1)B(O)OC2 (centres undefined) | 57.1 µM |  |
| OB1OCc2ccc(C(O)c3ccc(SCC(F)(F)F)cc3)cc21 (centres undefined) | 3.63 µM |  |
| O=[N+]([O-])c1ccc(CSc2ccc(C(O)c3ccc4c(c3)B(O)OC4)cc2)cc1 (centres undefined) | 7.16 µM |  |
| OB1OCc2ccc(C(O)c3ccc(-c4ccccc4)cc3)cc21 (centres undefined) | 5.48 µM | 4 µg/mL (≈ 12.7 µM) |

| SMILES | IC50 [1] | MIC (Streptococcus pneumoniae) |
| --- | --- | --- |
| OB1OCc2ccc(C(O)c3ccc(SCc4ccncc4)cc3)cc21 (centres undefined) | 7.17 µM |  |
| NC(=O)CSc1ccc(C(O)c2ccc3c(c2)B(O)OC3)cc1 (centres undefined) | 10.2 µM |  |
| CSc1ccc(C(O)c2ccc3c(c2)B(O)OC3)cc1 (centres undefined) | 3.95 µM | 32 µg/mL (≈ 112 µM) |
| CC(=O)c1ccc(C(O)c2ccc3c(c2)B(O)OC3)cc1 (centres undefined) | 11 µM |  |
| CS(=O)(=O)c1ccc(C(O)c2ccc3c(c2)B(O)OC3)cc1 (centres undefined) | 32.5 µM |  |
| OB1OCc2ccc(C(O)c3ccc(N4CCOCC4)cc3)cc21 (centres undefined) | 10.3 µM |  |
| C[S+]([O-])c1ccc(C(O)c2ccc3c(c2)B(O)OC3)cc1 (centres undefined) | > 100 µM |  |
| COC(=O)c1ccc(CSc2ccc(C(O)c3ccc4c(c3)B(O)OC4)cc2)cc1 (centres undefined) | 22.7 µM |  |
| COCCSc1ccc(C(O)c2ccc3c(c2)B(O)OC3)cc1 (centres undefined) | 5.76 µM |  |
| OB1OCc2ccc(C(O)c3cccc(F)c3)cc21 (centres undefined) | 56.1 µM |  |
| OB1OCc2ccc(C(O)c3ccc(C(F)(F)F)cc3)cc21 (centres undefined) | 5.75 µM | 32 µg/mL (≈ 104 µM) |
| OB1OCc2ccc(C(O)c3ccc(F)cc3)cc21 (centres undefined) | 4.86 µM | inactive |
| CC(C)(C)OC(=O)NCCSc1ccc(C(O)c2ccc3c(c2)B(O)OC3)cc1 (centres undefined) | 70.2 µM |  |
| OB1OCc2ccc(C(O)c3ccc(SCc4ccccc4)cc3)cc21 (centres undefined) | 27.5 µM |  |
| C#CCSc1ccc(C(O)c2ccc3c(c2)B(O)OC3)cc1 (centres undefined) | 3.77 µM | 16 µg/mL (≈ 51.6 µM) |
| N#Cc1ccc(C(O)c2ccc3c(c2)B(O)OC3)cc1 (centres undefined) | 8.14 µM |  |
| N#CCSc1ccc(C(O)c2ccc3c(c2)B(O)OC3)cc1 (centres undefined) | 3.89 µM | 8 µg/mL (≈ 25.7 µM) |
| CC(=O)COc1ccc(C(O)c2ccc3c(c2)B(O)OC3)cc1 (centres undefined) | 7 µM |  |
| O=Cc1ccc(C(O)c2ccc3c(c2)B(O)OC3)cc1 (centres undefined) | 12.8 µM |  |
| OB1OCc2ccc(C(O)c3ccc(SC(F)(F)F)cc3)cc21 (centres undefined) | 25.7 µM |  |
| CC1(C)S[C@@H]2[C@H](NC(=O)[C@H](N)c3ccccc3)C(=O)N2[C@H]1C(=O)O [AMPICILLIN] |  | 0.125 µg/mL (≈ 0.358 µM) |
| OB1OCc2ccc(C(O)c3ccc(Cl)cc3)cc21 (centres undefined) | 7.44 µM |  |
